Assay results taken from patent publication US20180037923A1, “SELECTIVE DETECTION OF LACTIC ACID AND/OR ACETIC ACID BACTERIA OR OF FUNGI” (priority 2015, published 2018).

Assays:
Assay in all cases: Agar plate count after contact with antifungal
Assay type in all cases: cell-based
[1] = system: Lactobacillus lindneri DSM 20690
From the text: (§1) The word “bactericide” refers to a treatment having the effect of reducing a bacterial population by at least three decimal logarithms of colony forming units/ml on an agar plate count of a sample after treatment.
(§2) The toxicity results on yeasts and on bacteria are presented in the table below displaying the duration of exposure of the fungal flora to molecule A1 and the associated fluorescence measurement: yeasts lysis after exposure to the antifungal was confirmed by microscopic examination and methylene blue staining.
(§3) The words “contact time” refer to below, the time of exposure of the microorganisms to the fungicidal product, here molecule A1.
(§4) Below: “No CFU” is the abbreviation for “No Colony forming unit on agar plate count”.
(§5) The toxicity results on yeasts and on bacteria are presented in the table below displaying the duration of exposure of the fungal flora to the molecule A2 and are obtained by enumeration on MRS agar media.

[2] = system: Pedicoccus damnosus IFBM
From the text: as §1, §2, §3, §4, §5

[3] = system: Brettanomyces bruxellensis Wyeast labs
From the text: as §1, §2, §3, §4, §5

[4] = 200 mg/L, count at contact time 0 h 6.10^6 CFU/mL

## C[C@@H]1[C@H](O)[C@@H](C)/C=C/C=C/C=C/C=C/C=C/C=C/C=C/[C@H](O[C@@H]2O[C@H](C)[C@@H](O)[C@H](N)[C@@H]2O)C[C@@H]2O[C@](O)(C[C@@H](O)C[C@@H](O)[C@H](O)CC[C@@H](O)C[C@@H](O)CC(=O)O[C@H]1C)C[C@H](O)[C@H]2C(=O)O [Molecule A1, Amphotericin B]
[1]; [4]
  Agar plate count contact time 4 h: 2.10^6 CFU/mL
[1]; 400 mg/L, count at contact time 0 h 6.10^5 CFU/mL
  Agar plate count contact time 4 h: 7.10^4 CFU/mL
[2]; 200 mg/L, count at contact time 0 h 7.2.10^5 CFU/mL
  Agar plate count contact time 4 h: 8.10^5 CFU/mL
[2]; 400 mg/L, count at contact time 0 h 1.1.10^5 CFU/mL
  Agar plate count contact time 4 h: 2.10^7 CFU/mL
[3]; [4]
  Agar plate count contact time 4 h: No CFU
[3]; 400 mg/L, count at contact time 0 h 3.10^5 CFU/mL
  Agar plate count contact time 4 h: No CFU
